Reference: US20050130949A1, “Cyclic polyamine compounds for cancer therapy” (priority 2000, published 2005)

Legend:
DuPro cells = experiment: Intracellular polyamine and analog levels by HPLC of dansylated extracts; assay type: cell-based, human
Method: For data shown in Tables 3a and 3b, intracellular polyamine levels were determined using a standard protocol. About 0.5-1×10^6 cells were taken from harvested samples and centrifuged at 1000 rpm at 4° C. for 5 min. The cells were washed twice with chilled Dulbecco's isotonic phosphate buffer (pH 7.4) by centrifugation at 1000 rpm at 4° C. and resuspended in the same buffer. After the final centrifugation, the supernatant was decanted, and 250 μl of 8% sulfosalycilic acid was added to the cell pellet. The cells were then sonicated, and the mixture was kept at 4° C. for at least 1 h. After centrifugation at 8,000 g for 5 min, the supernatant was removed for analysis. An appropriate volume (50-100 μl) was fluorescence-labeled by derivatizing with dansyl chloride. Labeled polyamines were loaded onto a C-18 high-performance liquid chromatography column and separated by gradient elution with acetonitrile/water at 50° C. Peaks were detected and quantitated using a Shimadzu HPLC fluorescence monitor coupled with a Spectra-Physics peak integrator. Because polyamine levels vary with environmental conditions, control cultures were sampled for each experiment.

DuPro = experiment: MTT assay, cell growth inhibition, DuPro; assay type: cell-based; details: Homo sapiens, 144 h, 6 days with drug, read-out: ID50 DuPro
Excerpt: (§1) To assess the utility of the subject compounds in the treatment of neoplastic cell growth, the ability of the compounds to inhibit the in vitro growth characteristics of several commonly used cancer models were studied. The subject polyamines induce cell growth inhibitions in several cultured human prostate tumor cell lines such as LnCap, DuPro, and PC-3 as determined by the accepted MTT assay (Table 2) (Hansen, M. B. et al., “Re-examination and further development of a precise and rapid dye method for measuring cell growth/cell kill,” J. Immunol. Methods (1989)119(2):203-10). […] The results with the DuPro cell line are representative of the results with human prostate cell lines.
(§2) For the data shown in Table 2, an accepted MTT assay protocol was used. A trypsinized cell suspension was diluted to seed 80 μl suspension containing 500 cells in each well of a 96 well microtiter plates and incubated overnight at 37° C. in a humidified incubator in 5% CO2. Twenty μl of appropriately diluted stock solution of each drug was added to the middle 8 columns of cell suspension in the microtiter plates. Each drug concentration was run in quadruplicate. Outer columns of the plates were used for buffer controls. Cells were incubated with the drug for 6 days at 37° C. in 5% CO2/H2O atmosphere. Twenty five μl of 5 mg/ml solution of 3-(4,5-dimethythiazol-2-yl)-2,5-diphenyl tetrazolium bromide (MTT) was added to each well and incubated for 4 hours at 37° C. in 5% CO2/H2O incubator. Cells were lysed by incubating overnight with 100 μl lysis buffer (500 ml of the lysis buffer containing: 100 g lauryl sulfate (SDS), 250 ml of N,N-dimethyl formamide in 2 ml of glacial acetic acid, pH 4.8). The color was monitored at room temperature at 570 nm in a E-max Precision Microplate Reader (Molecular Devices Corporation, Sunnyvale, Calif.) and data were analyzed using cell survival software supplied by Molecular Devices Corporation.

PC-3 = experiment: MTT assay, cell growth inhibition, PC-3; assay type: cell-based; details: Homo sapiens, PC-3, 144 h, 6 days with drug, read-out: ID50 PC-3
Excerpt: as §1, §2

LnCap = experiment: MTT assay, cell growth inhibition, LnCap; assay type: cell-based; details: Homo sapiens, 144 h, 6 days with drug, read-out: ID50 LnCap
Excerpt: as §1, §2

[1] = inorganic phosphate released from 100 μM ATP in 24 hour, 37° C.
Method: In a 96 well microtiter plate, the first two columns were routinely used for standard curve generation. For the standard curve, 40 μl of 0-70 μM phosphate buffer was used by serially diluting 1 mM NaH2PO4 solution in 1 N HCl. For ATP hydrolysis, the rest of the microtiter plate was equally divided into two sections to run two analogs at a time. Each section was divided into the appropriate number of columns to serially dilute each analog between 0-10 mM in 29 μl 2N HCl for the final concentration of 2 N HCl. Each drug concentration was run in quadruplicate. Equal volumes of 500 μM ATP solution (pH 7.5) were added to each well and the plates were incubated at 37° C. for appropriate lengths of time between 2-24 h. At the end of the incubation period, 160 μl of coloring agent (0.045% Malachite Green in water and 4.2% ammonium molybdate in 4 N HCl (3:1 v/v)) was added and the plates were incubated at 37° C. for another 30 mins. All plates were read at 595 nm using a Emax precision microplate reader (Molecular Device, San Jose, Calif.). A control plate containing analog solutions without ATP was created for each experiment. Control plate reading was subtracted from each experimental plate and all data was normalized to ATP hydrolysis at zero concentration of polyamine analog. The average and standard deviation for quadruplicate runs were plotted.

[2] = 1 μM analog, Day 4 of Treatment
[3] = 1 μM analog, Day 6 of Treatment
[4] = 2 μM analog, Day 4 of Treatment
[5] = 2 μM analog, Day 6 of Treatment
[6] = 0.5 μM analog, Day 4 of Treatment
[7] = 0.5 μM analog, Day 6 of Treatment

Row | Structure (SMILES) | Analog level (uptake) (DuPro cells; [2]) | Spm (spermine) level (DuPro cells; [2]) | Analog level (uptake) (DuPro cells; [3]) | Spm (spermine) level (DuPro cells; [3]) | Analog level (uptake) (DuPro cells; [4]) | Spm (spermine) level (DuPro cells; [4]) | Analog level (uptake) (DuPro cells; [5]) | Spm (spermine) level (DuPro cells; [5]) | IC50 (DuPro) | IC50 (PC-3) | IC50 (LnCap) | Analog level (uptake) (DuPro cells; [6]) | Spm (spermine) level (DuPro cells; [6]) | Analog level (uptake) (DuPro cells; [7]) | Spm (spermine) level (DuPro cells; [7]) | further results
1 | CCCCCCCCCCCCCC1CC(=O)NCCCNCCCCNCCCN1 (stereo not drawn) [SL-11174] | 2.788 nmoles/10^6 cells | 0.002 nmoles/10^6 cells | 17.206 nmoles/10^6 cells | 0.001 nmoles/10^6 cells | 25.074 nmoles/10^6 cells | 0.001 nmoles/10^6 cells | 21.472 nmoles/10^6 cells | 0.0021 nmoles/10^6 cells | 830 nM | 600 nM | 2200 nM | – | – | – | – | –
2 | CCCCCCCCCCCCCC1CC(=O)NCCCNCCCNCCCN1 (stereo not drawn) [SL-11197] | – | – | – | – | 49.072 nmoles/10^6 cells | – | 42.341 nmoles/10^6 cells | – | 580 nM | 500 nM | 2600 nM | 47.566 nmoles/10^6 cells | 0.004 nmoles/10^6 cells | 35.913 nmoles/10^6 cells | 0.002 nmoles/10^6 cells | –
3 | CCCCCCCCCCCCCC1CC(=O)NCCCNCCCCCNCCCN1 (stereo not drawn) [SL-11199] | – | – | – | – | 17.198 nmoles/10^6 cells | – | 10.241 nmoles/10^6 cells | – | 1200 nM | 1400 nM | 1500 nM | 26.959 nmoles/10^6 cells | 0.002 nmoles/10^6 cells | 26.841 nmoles/10^6 cells | 0.003 nmoles/10^6 cells | Spd (spermidine) level (DuPro cells; [7]): 0.005 nmoles/10^6 cells
4 | CCCCCCCCCCCCCC1CC(=O)NCCCNCCCNCCCNCCCN1 (stereo not drawn) [SL-11200] | 10.089 nmoles/10^6 cells | 0.089 nmoles/10^6 cells | 46.776 nmoles/10^6 cells | 0.043 nmoles/10^6 cells | 5.989 nmoles/10^6 cells | 0.095 nmoles/10^6 cells | 49.309 nmoles/10^6 cells | 0.053 nmoles/10^6 cells | 1400 nM | 1300 nM | – | – | – | – | – | Put (putrescine) level (DuPro cells; [2]): 0.004 nmoles/10^6 cells; Spd (spermidine) level (DuPro cells; [2]): 0.029 nmoles/10^6 cells; Spd (spermidine) level (DuPro cells; [3]): 0.014 nmoles/10^6 cells; Put (putrescine) level (DuPro cells; [4]): 0.020 nmoles/10^6 cells; Spd (spermidine) level (DuPro cells; [4]): 0.027 nmoles/10^6 cells; Put (putrescine) level (DuPro cells; [5]): 0.011 nmoles/10^6 cells; Spd (spermidine) level (DuPro cells; [5]): 0.018 nmoles/10^6 cells
5 | NCCCNCCCCNCCCN [spermine] | – | – | – | – | – | – | – | – | – | – | – | – | – | – | – | hydrolysis of ATP [1]: lack of ATP hydrolysis
